# Experimental data published in PubChem BioAssay (NCI).
#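 A five-concentration, 48-hour dose response in 96-well plates underlies each endpoint, interpolated linearly between surrounding concentrations. GI50: concentration for 50% inhibition of growth. TGI: total growth inhibition.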
# Key:
# Assay in all cases: inhibition of tumour cell growth, NCI panel, 48 h
# OVCAR-3 ovarian = tested on: OVCAR-3 ovarian
# SNB-75 CNS = tested on: SNB-75 CNS
# EKVX NSCLC = tested on: EKVX NSCLC
# SK-MEL-2 melanoma = tested on: SK-MEL-2 melanoma
# UACC-62 melanoma = tested on: UACC-62 melanoma
# OVCAR-4 ovarian = tested on: OVCAR-4 ovarian
# HCT-116 colon = tested on: HCT-116 colon
# HCC-2998 colon = tested on: HCC-2998 colon
# CAKI-1 renal = tested on: CAKI-1 renal
SMILES,TGI (OVCAR-3 ovarian) [µM],TGI (SNB-75 CNS) [µM],TGI (EKVX NSCLC) [µM],TGI (SK-MEL-2 melanoma) [µM],TGI (UACC-62 melanoma) [µM],TGI (OVCAR-4 ovarian) [µM],TGI (HCT-116 colon) [µM],TGI (HCC-2998 colon) [µM],TGI (CAKI-1 renal) [µM],GI50 (OVCAR-3 ovarian) [µM],GI50 (HCC-2998 colon) [µM],GI50 (SNB-75 CNS) [µM],GI50 (CAKI-1 renal) [µM],GI50 (SK-MEL-2 melanoma) [µM],GI50 (UACC-62 melanoma) [µM],GI50 (OVCAR-4 ovarian) [µM],GI50 (HCT-116 colon) [µM],GI50 (EKVX NSCLC) [µM]
COc1ccc(C2CCc3cc4c(cc3/C2=N/OC(C)=O)OCO4)cc1OC (stereo not given),55.9,75,> 100,64.7,57.7,> 100,28.1,,,,,,,,,,,
S=c1nc(-c2ccnc(-c3nc(=S)[nH][nH]3)c2)[nH][nH]1,> 100,,> 100,> 100,> 100,> 100,> 100,> 100,> 100,,,,,,,,,
COc1cc2c(c(OC)c1OC)-c1ccc(SC)c(=O)cc1[C@@H](NC(=O)c1ccc(Cl)cc1)CC2,2.64,> 100,,5.47,56.3,> 100,11.3,< 0.01,,,,,,,,,,
COC(=O)/C(=N\NC(N)=S)C(C#N)c1ccccc1 (stereo not given),> 100,> 100,> 100,> 100,> 100,> 100,> 100,> 100,,,,,,,,,,
COc1cc2cc3c4c(cc(OC)c(OC)c4c2cc1OC)CCN3C(=O)CCC(=O)NCCCN(C)C,> 100,53.2,> 100,41.9,> 100,> 100,> 100,> 100,> 100,,,,,,,,,
COc1ccc(S(=O)(=O)N(C)CC(=O)O)cc1,> 100,> 100,> 100,> 100,> 100,> 100,,> 100,> 100,,,,,,,,,
N[C@@H]1CCCC[C@@H]1N.O=P([O-])([O-])CN(CP(=O)([O-])[O-])CP(=O)([O-])[O-].[Pt+2],> 100,> 100,,> 100,> 100,> 100,> 100,> 100,> 100,> 100,> 100,> 100,> 100,> 100,> 100,> 100,> 100,
C=[CH][Sn]([CH]=C)([O]c1cccc2cccnc12)[O]c1cccc2cccnc12,10,14,17.2,7.87,2.5,4.37,2.46,8.85,22.8,2.53,4.44,3.95,6.73,1.72,0.964,1.38,1.12,5.58
CC1CC[C@]2(C(=O)O)CCC3(C)C(=CCC4[C@@]5(C)CC[C@H](OS(=O)(=O)c6ccccc6)C(C)(C)C5CC[C@]43C)[C@@H]2[C@H]1C (stereo not given in full),> 100,> 100,> 100,> 100,> 100,> 100,> 100,> 100,> 100,,,,,,,,,
CCOc1ccc(C(CN2CCOCC2)C(C)=O)cc1OC (stereo not given),,32.6,50.3,28.4,32.8,33.3,43.5,32.3,23.4,,,,,,,,,
CCC1CNC(=O)CC1CC(=O)OC (stereo not given),> 100,> 100,> 100,> 100,> 100,> 100,> 100,> 100,> 100,,,,,,,,,
COc1cccc(NC(=O)C(=O)C(C(C)=O)c2nc3ccc(Cl)cc3[nH]c2=O)c1 (stereo not given),> 100,> 100,> 100,> 100,> 100,> 100,> 100,> 100,> 100,,,,,,,,,
Cc1c(C(=O)CSc2nc3ccccc3[nH]2)c(=O)n(-c2ccccc2)n1C,> 100,> 100,,> 100,,> 100,> 100,> 100,> 100,,,,,,,,,
CN(C=O)/C=C/c1cc(O)ccc1O,32.5,> 59,63.8,59.5,46.9,33.6,48.9,> 100,38.9,,,,,,,,,
OCNCCNc1nc2ccccc2c2[nH]c3ccccc3c12,3.67,11.6,3.25,24,7.5,,1.14,,7.38,1.31,,2.28,2.01,2.25,2,,0.186,1.18
CCOC(=O)[C@H]1Nc2ccccc2C2c3ccccc3CC21 (stereo not given in full),> 100,> 100,,> 100,> 100,> 100,> 100,> 100,> 100,,,,,,,,,
CC1OC(OC2CCC3(C=O)C4CCC5(C)C(C6=CC(=O)OC6)CCC5(O)C4CCC3(O)C2)C(O)C(O)C1O (stereo not given),,0.36,3.38e-05,0.000326,0.000127,3.33e-05,,,4.15e-05,,,,,,,,,
COc1ccc(CCN=C2CCC(C(=O)NCCc3ccc(OC)c(OC)c3)N2)cc1OC (stereo not given),> 100,> 100,> 100,> 100,> 100,> 100,> 100,> 100,> 100,,,,,,,,,
COc1ccc(CCc2cc(OC)c(OC)c(OC)c2)cc1,0.523,> 100,70,24.2,> 100,> 92.5,9.41,2.82,20.4,,,,,,,,,
O=S(=O)(c1ccc(O)c(C=Nc2ccc(Cl)cc2)c1)c1ccc(O)c(C=Nc2ccc(Cl)cc2)c1,> 100,> 100,> 100,> 100,> 100,> 100,> 100,> 100,> 100,,,,,,,,,
Cc1cc(Cl)cc2c1NC(=O)C2=O (tested in a mixture with another compound),> 100,> 100,> 100,> 100,41.6,> 100,> 100,> 100,> 100,,,,,,,,,
FC1OC2OC1C(OCc1ccccc1)C(OCc1ccccc1)C2OCc1ccccc1 (stereo not given),> 100,> 100,> 100,> 100,> 100,> 100,63.2,,> 100,,,,,,,,,

SMILES,TGI (OVCAR-3 ovarian) [µM],TGI (SNB-75 CNS) [µM],TGI (EKVX NSCLC) [µM],TGI (SK-MEL-2 melanoma) [µM],TGI (UACC-62 melanoma) [µM],TGI (OVCAR-4 ovarian) [µM],TGI (HCT-116 colon) [µM],TGI (HCC-2998 colon) [µM],TGI (CAKI-1 renal) [µM],GI50 (OVCAR-3 ovarian) [µM],GI50 (HCC-2998 colon) [µM],GI50 (SNB-75 CNS) [µM],GI50 (CAKI-1 renal) [µM],GI50 (SK-MEL-2 melanoma) [µM],GI50 (UACC-62 melanoma) [µM],GI50 (OVCAR-4 ovarian) [µM],GI50 (HCT-116 colon) [µM],GI50 (EKVX NSCLC) [µM]
CCN(CC)CCN(C(=O)C(C)(C)C)c1ccccc1N,> 100,> 100,> 100,,> 100,> 100,> 100,,> 100,,,,,,,,,
CN1CCc2c1nc(-c1ccc([N+](=O)[O-])cc1)c1c2N(C)CC1,> 100,> 100,> 100,> 100,> 100,> 100,> 100,> 100,> 100,,,,,,,,,
CNC(=O)CN(CC(N)=O)C(N)=O,> 100,> 100,> 100,> 100,> 100,> 100,,> 100,> 100,,,,,,,,,
O=C1C=CC2(C=C1)C[C@H](NC(=O)C(F)(F)F)C(=O)O2,> 100,> 100,39.6,,37.7,> 100,> 100,> 100,> 100,,,,,,,,,
COc1nc(NC2OC(COC(C)=O)C(OC(C)=O)C(OC(C)=O)C2OC(C)=O)c(-c2csc(N)n2)c(=O)n1C (stereo not given),> 100,51.8,,90.2,> 100,> 100,> 100,,> 100,,,,,,,,,
CSC1=NCC2(S1)c1ccccc1N(C(=O)OC(C)(C)C)C2N1CCCCC1 (stereo not given),,88.4,> 100,> 100,> 100,> 100,> 100,> 100,,,31,31.7,,> 100,76.6,> 100,40.6,> 100
C[C@@H]1C[C@]2(C[C@@H](C)C3[C@@H](CC4(C)[C@@H]5CCC6C(C)(C)OC(=O)C=C[C@]67C[C@@]5(CC[C@]34C)OO7)O2)OC1=O (stereo not given in full),66.3,56.9,,> 100,> 100,64.4,> 100,> 100,,,,,,,,,,
C[C@]12CC[C@H](OC3CCCCO3)CC1=CC[C@@H]1C2CC[C@]2(C)/C(=N/O)CCC12 (stereo not given in full),31.1,41.9,82.9,89.7,> 100,39,29.6,37.8,> 100,,,,,,,,,
CCCCCCCCCCCCCc1nn[nH]n1,32.6,36,52,33.1,34.6,35.4,31.7,33.7,,,,,,,,,,
CCOC(=O)C1COc2cc(-c3cc(=O)c4ccccc4o3)ccc2O1 (stereo not given),> 100,> 100,> 100,> 100,> 100,> 100,> 100,> 100,> 100,,,,,,,,,
C/C(CC(=O)N(C(C)C)C(C)C)=N\NC(=O)c1ccncc1,> 100,> 100,> 100,,> 100,> 100,> 100,> 100,,,,,,,,,,
COC(OC)c1cc2c(cc1C(=O)[C@@]13CCC[C@@H]1NC(=O)O3)OCO2,> 100,> 100,> 100,> 100,> 100,> 100,> 100,,> 100,,,,,,,,,
COC(=O)CC(C(C(C)=O)C(=O)OCc1ccccc1)N1C(=O)OCC1c1ccccc1 (stereo not given),> 100,71.9,> 100,> 100,> 100,> 100,> 100,> 100,,,,,,,,,,
COc1ccccc1NC(=O)C(CC(C(=O)Nc1ccccc1OC)/C(C)=N/Nc1ccc([N+](=O)[O-])cc1[N+](=O)[O-])/C(C)=N/Nc1ccc([N+](=O)[O-])cc1[N+](=O)[O-] (stereo not given),> 100,> 100,> 100,> 100,> 100,> 100,> 100,> 100,> 100,,,,,,,,,
CC1COCC(C)N1C1=C(Cl)C(=O)c2ccccc2C1=O (stereo not given),2.92,23.2,2.87,,18.8,3.03,3.01,31.1,2.97,1.56,17.2,10.7,1.56,,5.85,1.61,1.65,1.42
COc1ccc(OC)c2c3c(ccc12)C(c1ccccc1)OC3=O (stereo not given),79.9,> 100,> 100,> 100,> 100,> 100,> 100,> 100,> 100,,,,,,,,,
O=c1cc(-c2ccccn2)[nH]c2ccc(Cl)cc12,> 100,> 100,> 100,,> 100,> 100,> 100,> 100,,63.7,,,,,,,26,
O=C(Nc1cccc(NC(=O)c2cc(=O)c3ccccc3o2)n1)c1cc(=O)c2ccccc2o1,> 100,> 100,> 100,> 100,> 100,> 100,> 100,> 100,> 100,,,,,,,,,
CCCCCCCCCCCCCCCCOC(=O)c1cc(O)cc(C(=O)OCCCCCCCCCCCCCCCC)c1,> 100,> 100,> 100,> 100,> 100,> 100,> 100,> 100,> 100,,,,,,,,,
CCCCCCCCCCCCOP(N)(=O)OCCCCCCCCCCCC,> 100,> 100,> 100,,> 100,,> 100,> 100,,,,,,,,,,
CC(C)C(=O)Oc1cc2c(=O)oc3c(OC(=O)C(C)C)c(OC(=O)C(C)C)cc4c(=O)oc(c1OC(=O)C(C)C)c2c34,> 100,> 100,> 100,,> 100,> 100,> 100,> 100,> 100,,,,,,,,,
Cc1nc(-n2nc(-c3ccccc3)cc2-c2ccccc2)sc1C(/C=C/c1ccc([N+](=O)[O-])cc1)=N/NC(=O)c1ccncc1,42.5,> 100,> 100,66.1,81.1,,21.8,26.6,,,,,,,,,,
